We go through two compounds from publication PMC9963937, “Synergistic Combination of Irinotecan and Rapamycin Orally Delivered by Nanoemulsion for Enhancing Therapeutic Efficacy of Pancreatic Cancer” (Pharmaceutics, 2023).

Where two headings read alike, the source gives them in different places.

A short description of data set [1]: In vitro release from LBSNENP, USP Apparatus 2 dissolution. It is filed as physicochemical. Conditions: endpoint (60 min). As to the method: The contents of irinotecan and rapamycin in LBSNENPir and LBSNENPra were detected through HPLC. To determine the irinotecan content, we used the Waters 600E HPLC system with the SunFire C18 column (4.6 mm × 250 mm I.D., 5 μm; Waters). The mobile phase consisted of 10 mM phosphate buffer (pH 3.0)/acetonitrile/tetrahydrofuran (65/35/2 v/v), the flow rate was 0.8 mL/min, the column was maintained at 40 °C, the injection volume was 20 µL, and the fluorescence detector was set at the excitation and emission wavelengths of 370 and 470 nm, respectively. To determine the rapamycin content, we used the JASCO HPLC system with the Inersil ODS-2 C18 column (4.0 mm × 150 mm I.D., 5 μm). The mobile phase was a mixture of acetonitrile and water (20/80 v/v), the flow rate was 1.0 mL/min, the column was maintained at 55 °C, the injection volume was 100 µL, and the UV detector was set at the wavelength of 278 nm. Each data point came from the mean of at least three individual trials. The assay method was also well validated before. […]
The in vitro release of irinotecan and rapamycin from LBSNENP was examined using the dissolution method on United States Pharmacopeia (USP) Apparatus 2 (VK7000, Vankel, UK). […] The contents of irinotecan and rapamycin were determined through HPLC as described in the earlier text. […]

In data set [2] the test system is MIA PaCa-2 pancreatic cancer cell line. The data set is described as follows: MTT cell viability assay. It counts as cell-based. Conditions: Homo sapiens, read-out: IC50 against MIA PaCa-2 cells. As for the experimental part:
To evaluate the cytotoxicity and combination effects of rapamycin and silymarin as well as free irinotecan, we performed the 3-(4,5-dimethylthiazol-2-yl)-2,5-diphenyl-2H-tetrazolium bromide (MTT) assay by using the MIA PaCa-2 pancreatic cancer cell line. Briefly, the cells were seeded in a 96-well plate at a density of 3 × 10^4 cells/well and incubated at 37 °C with 5% CO2 for 24 h. After 24 h, the cells were treated with different concentrations of free irinotecan (0–300 µM), rapamycin (0–300 µM), SN38 (0–300 nM), and silymarin (0–1000 µM). To determine the combination effect, the cells were treated with different ratios of irinotecan/rapamycin and SN38/rapamycin (1/0.3, 1/0.5, 1/1, and 1/2) and irinotecan/silymarin and SN38/silymarin (1/1 and 1/2). All the cells were incubated with the drugs for 24–48 h. Then, the MTT reagent and dimethyl sulfoxide were added for the formation and the dissolution of purple formazan crystals. The absorbance of each well was measured at 550 nm on a Cytation 3 cell imaging multimode reader (BioTek, Winooski, VT, USA). The half-maximal inhibitory concentration (IC50) and combination index (CI) of the drugs were calculated using CompuSyn Sofware (Paramus, NJ, USA) through the Chou–Talalay method. In the Chou–Talalay method, the CI values of <0.9, >1.1, and 0.9–1.1 indicated synergistic, antagonistic, and additive effects, respectively. Each data point was the mean of at least six individual experiments.
In general terms: Formazan colour is commonly taken as a measure of viable cells.

One may read the IC50 as the concentration that inhibits the measured activity by half. Turning to `CO[C@H]1C[C@@H]2CC[C@@H](C)[C@@](O)(O2)C(=O)C(=O)N2CCCC[C@H]2C(=O)O[C@H]([C@H](C)C[C@@H]2CC[C@@H](O)[C@H](OC)C2)CC(=O)[C@H](C)/C=C(\C)[C@@H](O)[C@@H](OC)C(=O)[C@H](C)C[C@H](C)/C=C/C=C/C=C/1C` [rapamycin, Rapamycin], in data set [1] (0.4% sodium lauryl sulfate solution, 37 °C, 100 rpm), the “dissolution percentage of raw rapamycin powder at the endpoint” value is around 32%. Besides, the IC50 in data set [2] (MIA PaCa-2, 24 h) was 2.98 ± 0.97 µM; in data set [2] (MIA PaCa-2, 48 h), 3.88 ± 1.17 µM.

Take `CCc1c2c(nc3ccc(OC(=O)N4CCC(N5CCCCC5)CC4)cc13)-c1cc3c(c(=O)n1C2)COC(=O)[C@]3(O)CC` [irinotecan, Irinotecan]: the “dissolution percentage of raw irinotecan powder at the endpoint” value in data set [1] (buffer pH 1.2, 37 °C, 50 rpm) is given as “approximately 63%”. Further, the IC50 in data set [2] (MIA PaCa-2, 24 h) came to 4.78 ± 9.42 µM; in data set [2] (MIA PaCa-2, 48 h), 12.2 ± 4.56 µM.
